Test results reported in patent US7659271B2, “Pyrimidine compound having dibenzylamine structure and medicament comprising the same” (Kowa Company, Ltd., priority 2007, dated 2010).
Marks after values point to notes of the source that are not given here.

How the values were obtained:
[1] = system: normal hamsters; experiment: Measurement of blood HDL cholesterol increasing action in normal hamsters; assay type: in vivo, male Syrian Hamsters; conditions: for Average HDL cholesterol level ± SD: plasma 2 hours after administration on day 7, n = 5; for HDL cholesterol increasing ratio: relative to control group
Source text: N-{1-[3,5-Bis(trifluoromethyl)phenyl]ethyl}-N-({2-[(cyclopentylmethyl)(ethyl)amino]-5-(trifluoromethyl)phenyl}methyl)-5-[2-(methylsulfonyl)ethoxy]pyrimidin-2-amine (Example 3), or 4(S)-[(3,5-bis-trifluoromethylbenzyl)methoxycarbonylamino]-2(R)-ethyl-6-trifluoromethyl-3,4-dihydro-2H-quinoline-1-carboxylic acid ethyl ester (Torcetrapib) disclosed in International Patent Publication WO2000/17164 was suspended in a 5% Tween 80 solution (control vehicle), and then repeatedly administered to normal hamsters (male Syrian Hamsters) by oral administration once a day over 7 days by using a metal catheter. Two hours after the administration on day 7 of the administration, blood was collected, and plasma was obtained. Plasma lipoproteins were analyzed by automatic measurement using a HPLC system based on the postlabeling method according to the method described in J. Lipid. Res., 43, pp. 805-814. Specifically, 15 μL of a plasma sample was diluted 10 times with PBS containing 1 mM EDTA, and then injected in a volume of 80 μL into a gel filtration column (Superose 6 column, column size: 10×300 mm, GE Healthcare Bioscience) connected to a HPLC system (liquid feeding unit: Shimadzu LC-20A System, Shimadzu). Separation was performed by using PBS containing 1 mM EDTA as a running buffer at a flow rate of 0.5 mL/min and at a column temperature of 40° C. The eluate from the column was mixed with a cholesterol measurement reagent (Cholesterol E-Test Wako, Wako Pure Chemical Industries) at a flow rate of 0.25 mL/min, and the reaction was allowed in a reaction coil (0.5 mm×15 m) at 40° C. during the feeding. Cholesterols in the eluate from the reaction coil were detected at a wavelength of 600 nm. An area ratio of the HDL fraction relative to the total area of the obtained cholesterols was calculated, and HDL cholesterol level was calculated by multiplying the total cholesterol level measured beforehand using Cholesterol E Test Wako by the area ratio of the HDL fraction. Five normal hamsters grouped beforehand on the basis of the total plasma cholesterol level were used for each of the control group (control vehicle administration group) and the compound administration groups (groups administered with the compound of Example 3 at 10 mg/kg, 30 mg/kg and 100 mg/kg, and Torcetrapib at 10 mg/kg and 100 mg/kg).
The symbols * and *** used in FIG. 1 and Table 3 indicate presence of significant difference at a risk ratio lower than 5% (p<0.05) and a risk ratio lower than 0.1% (p<0.001), respectively, in a multi-group comparison test (Dunnett's multiple comparison test) performed between the control group and each compound administration group. Further, increasing ratios of HDL cholesterol level in each group relative to the control group were calculated as HDL cholesterol increasing ratios in accordance with the following equation 2, and indicated in terms of %. HDL cholesterol increasing ratio (%)=[(Average HDL cholesterol level of each compound administration group−Average HDL cholesterol level of control group)/Average HDL cholesterol level of control group]×100 (Equation 2)

[2] = target: T1, CETP (Homo sapiens, UniProt P11597); experiment: Measurement of CETP inhibitory action in human plasma; assay type: biochemical; conditions: incubated with compound 37° C. 4 hours, Roar Biomedical CETP Activity kit, read-out: IC50 (concentration inhibiting the CETP activity by 50%)
T1 construct: The CETP activity in this plasma was measured with Cholesteryl Ester Transfer Protein Activity kit; from tissue; host or cells: human plasma
T1 sequence (P11597 18-493): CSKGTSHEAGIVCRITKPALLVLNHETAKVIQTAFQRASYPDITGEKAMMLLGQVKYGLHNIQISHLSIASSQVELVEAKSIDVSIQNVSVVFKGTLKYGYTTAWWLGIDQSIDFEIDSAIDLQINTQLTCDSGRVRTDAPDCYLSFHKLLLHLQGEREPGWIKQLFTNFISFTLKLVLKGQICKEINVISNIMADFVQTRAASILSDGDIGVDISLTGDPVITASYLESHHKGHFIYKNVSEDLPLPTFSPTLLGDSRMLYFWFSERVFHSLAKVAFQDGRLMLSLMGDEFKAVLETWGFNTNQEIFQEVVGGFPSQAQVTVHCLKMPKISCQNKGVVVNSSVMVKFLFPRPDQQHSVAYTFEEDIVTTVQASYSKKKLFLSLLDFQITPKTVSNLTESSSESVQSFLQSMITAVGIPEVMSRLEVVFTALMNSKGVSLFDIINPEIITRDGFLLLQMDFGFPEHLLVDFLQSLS
Experimental: A solution obtained by dissolving an exemplary compound in polyethylene glycol/N-methyl-2-pyrrolidone (vol/vol=1/1) was added to human plasma, and the mixture was incubated in an incubator at 37° C. for 4 hours. The CETP activity in this plasma was measured with Cholesteryl Ester Transfer Protein Activity kit (Roar Biomedical, catalog No.: RB-CETP). Specifically, to each well of a 96-well plate, 95 μL of a buffer (10 mM Tris, 150 mM NaCl, 2 mM EDTA, pH 7.4), 2 μL of Donor particle and 2 μL of Acceptor particle were added, 1 μL of the human plasma after the incubation was added to the mixture, and the mixture was incubated in an incubator at 37° C. for 2 hours. After completion of the incubation, fluorescence intensity (FLU) was measured with a fluorescence plate reader (excitation wavelength: 465 nm, emission wavelength: 535 nm). In accordance with the following equation 1, the CETP activity (% of control) was obtained for the compounds of the examples for two or more concentrations. CETP activity (% of control)=(Sample FLU−Blank FLU)×100/(Control FLU−Blank FLU) (Equation 1)
In the equation, the terms have the following meanings: […]
Blank FLU: Fluorescence intensity of sample not added with plasma
Control FLU: Fluorescence intensity of plasma not added with solution of compound
Sample FLU: Fluorescence intensity of plasma added with solution of compound
A value obtained by subtracting the value of the CETP activity from 100 was defined as the CETP inhibitory rate of each exemplary compound, and a concentration inhibiting the CETP activity by 50% (IC50) was calculated for each exemplary compound from the values of the CETP inhibitory rate at two or more concentrations.

[3] = 10 mg/kg oral once a day over 7 days
[4] = 30 mg/kg oral once a day over 7 days
[5] = 100 mg/kg oral once a day over 7 days

IC50 [2] [nM] | SMILES | Average HDL cholesterol level ± SD [1, 3] | HDL cholesterol increasing ratio [1, 3] [%] | Average HDL cholesterol level ± SD [1, 4] | HDL cholesterol increasing ratio [1, 4] [%] | Average HDL cholesterol level ± SD [1, 5] | HDL cholesterol increasing ratio [1, 5] [%]
30 | CCN(CC1CCCC1)c1ccc(C(F)(F)F)cc1CN(c1ncc(OCCS(C)(=O)=O)cn1)C(C)c1cc(C(F)(F)F)cc(C(F)(F)F)c1 (centres unmarked) [Example 3, N-{1-[3,5-bis(trifluoromethyl)phenyl]ethyl}-N-({2-[(cyclopentylmethyl)(ethyl)amino]-5-(trifluoromethyl)phenyl}methyl)-5-[2-(methylsulfonyl)ethoxy]pyrimidin-2-amine] | 118.5 ± 7.6*** mg/dl | 37.1 | 124.4 ± 8.4*** mg/dl | 43.9 | 126.9 ± 13.2*** mg/dl | 46.8
– | CCOC(=O)N1c2ccc(C(F)(F)F)cc2[C@@H](N(Cc2cc(C(F)(F)F)cc(C(F)(F)F)c2)C(=O)OC)C[C@H]1CC [Torcetrapib, 4(S)-[(3,5-bis-trifluoromethylbenzyl)methoxycarbonylamino]-2(R)-ethyl-6-trifluoromethyl-3,4-dihydro-2H-quinoline-1-carboxylic acid ethyl ester, reference compound] | 90.6 ± 7.7 mg/dL | 4.8 | – | – | 113.0 ± 23.2* mg/dl | 30.7
